In patent US20070196914A1, “Methods for preparing oil bodies comprising active ingredients” (SemBioSys Genetics Inc., priority 2003, published 2007):

Columns and labels:
[1] = Partitioning of active into washed safflower oil bodies (free oil / total oil extraction, HPLC or absorbance); type: physicochemical, safflower (Carthamus tinctorius); parameters: level of active incorporated into the oil bodies as a percentage of dry weight: concentration or dose not given beside the values; conditions: two-solvent loading, incubated overnight at 34-37° C. (CP 34-42° C.)
Excerpt: Hexane extraction may be used to determine the amount of active present in the free oil (free oil is defined as oil not contained within oil bodies. Note that the intact oil bodies are largely resistant to extraction by hexane alone). (Tzen et al. (1997) J. Biochem 121: 762-768.) Once the free oil has been removed from the active/oil body fraction, an analysis of the total remaining oil may be performed using for example, hexane:isopropanol, chloroform, or chloroform:methanol solution extraction. The amount of active present in both the free oil fraction and the total oil fraction can be determined by a number of methods including, but not limited to, high performance liquid chromatography (HPLC), spectrophotometry, fluorescence, or activity assays depending on the active. By comparing the amount of active in both the free oil fraction and the total oil fraction the average amount of active incorporated into the intact oil bodies can be determined. In general, the efficiency of partitioning of the active into intact oil bodies can range from about 10 to about 99.9%. More typically however the efficiency of partitioning of the active into intact oil bodies will range from about 50 to about 99% and most typically from about 90 to about 99.
Washed safflower oil bodies were prepared as described in example 1. Oil bodies were preserved with 0.1 % Neolone 950 and 0.1 % glycacil L. Clobetasol propionate (CP) (Supplier-Sigma) was weighed (12-30 mg) into a clean and dry 16×100 mm screw-cap Pyrex test tube and mixed with 300 μl of isopropanol then 200 mg of safflower oil. The combined sample was vortexed and subsequently incubated at 34° C. for 20 minutes. After incubation, the sample was re-vortexed then dried under nitrogen for 20 minutes to remove the isopropanol. One ml of washed high dry weight oil bodies were added to the CP/safflower oil mixture at room temperature, centrifuged briefly to pellet contents to allow for thorough mixing, vortexed and further incubated at 34-42° C. overnight in an air tight tube to allow for incorporation of the CP and safflower oil into the oil bodies. A hexane extraction was used to determine the amount of CP present in the free oil (free oil is defined as oil not contained within oil bodies. Note that the intact oil bodies are largely resistant to extraction by hexane alone but all hexane extractions of loaded oil bodies must be corrected for damage done to intact oil bodies by the hexane through corrections using free oil values obtained from unloaded oilbodies). Three ml of hexane are added to the tubes and the tubes are shaken to mix 32 times. The samples are centrifuged in a swinging bucket clinical centrifuge at 3220×g for one minute to separate hexane from the oil body-aqueous phase. Note that the free oil will remain in the hexane layer (top). The hexane layer is removed to another tube and the hexane extraction is repeated on the remaining CP/oil body mixture. Once the majority of the solvent from the second extraction is added to the tube containing the first extract, the hexane containing tube is transferred to a heating block. The hexane was evaporated by subjecting the tubes to a gentle stream of high purity N2 gas while heating the block to 40-45° C. for at least 1.5 hours. Once the free oil was removed from the CP/oil body fraction, an analysis of the total remaining oil was performed. The remaining total oil in intact oil bodies was determined by adding 4 ml of a 3:2 hexane:isopropanol solution (HIP) and shaking to mix vigorously until all of the oil was dissolved in the HIP solvent (about 10-20 seconds). This was followed by the addition of 2.5 ml of 6.67% Na2SO4 (w/v) to the tube and the tube was shaken for another 10 seconds. Phase separation is facilitated by centrifugation for 2 minutes at 3220×g in a swinging bucket clinical centrifuge. The organic or upper phase is removed to a second test tube using a Pasteur pipette while avoiding the transfer of the aqueous phase. […]

[2] = Partitioning of phosphatidylcholine into washed safflower oil bodies (fluorescent tracer); type: physicochemical, safflower (Carthamus tinctorius); conditions: average
Protocol: Washed safflower oil bodies were prepared as described in example 1. Oil bodies were preserved with 0.1% Neolone 950 and 0.1% glycacil L. Phosphatidylcholine (PC, Supplier-Sigma) was weighed (1-300 mg) into a clean and dry 16×100 mm screw-cap Pyrex test tube. A fluorescent tracer (phosphatidic acid, Supplier-Molecular Probes) was added to the PC. The amount used was 0.05-0.25% the weight of the PC of a 1 mg/ml solution of tracer (resuspended following the manufacturer's instructions). 200 ul of isopropanol was added for every 10 mg of PC to dissolve the PC/tracer mixture. Buffer (50 mM NaH2PO4, pH 8.0) was added to the isopropanol mixture using the same buffer (50 mM NaH2PO4, pH 8.0) as the oilbodies were made in. The volume was equivalent to the volume of oilbodies being loaded. The PC/tracer/isopropanol/buffer mixture was sonicated on high for 15-30 seconds. […] Both the wash fractions and the oilbody fractions were assessed for fluorescence quantities after extraction with hexane using a total oil extraction procedure. The total oil extraction was done by adding 4 mls of a 3:2 hexane:isopropanol solution (HIP) to a measured amount of the sample and shaking to mix vigorously until all of the oil was dissolved in the HIP solvent (about 10-20 seconds). […] A known quantity of isopropanol was added to the extracted fractions and the sample was quantitated using a fluorescent spectrophotometer. […]

Row | Compound | level of active incorporated into the oil bodies as a percentage of dry weight [1] [%] | average % of the active added that was incorporated into the intact oil bodies [1] [%] | amount of PC loaded in to the membrane of the oil body, % of the dry weight of the oil body ([2]; isopropanol/phosphate buffer pH 8.0, 37° C., without stearylamine) [%] | amount of PC loaded in to the membrane of the oil body, % of the dry weight of the oil body ([2]; stearylamine included in PC/tracer mixture at approximately 30% of the amount of PC) [%]
1 | O=C(O)Cc1ccccc1Nc1c(Cl)cccc1Cl [diclofenac] | 1.36 | 43.9 |  | 
2 | CCCCNc1ccc(C(=O)OCCN(C)C)cc1 [tetracaine, 4-(butylamino)-Benzoic acid, 2-(dimethylamino)ethyl ester] | 2.43 | 90.8 |  | 

Further lines, results first:

Row | level of active incorporated into the oil bodies as a percentage of dry weight [1] [%] | average % of the active added that was incorporated into the intact oil bodies [1] [%] | amount of PC loaded in to the membrane of the oil body, % of the dry weight of the oil body ([2]; isopropanol/phosphate buffer pH 8.0, 37° C., without stearylamine) [%] | amount of PC loaded in to the membrane of the oil body, % of the dry weight of the oil body ([2]; stearylamine included in PC/tracer mixture at approximately 30% of the amount of PC) [%] | Compound
3 | 0.316 | 94.7 |  |  | CCC(=O)O[C@]1(C(=O)CCl)[C@@H](C)C[C@H]2[C@@H]3CCC4=CC(=O)C=C[C@]4(C)[C@@]3(F)[C@@H](O)C[C@@]21C [clobetasol propionate, (11β,16β)-21-chloro-9-fluoro-11-hydroxy-16-methyl-17-(1-oxopropoxy)pregna-1,4-diene-3,20-dione]
4 | 0.253 | 97.3 |  |  | O=C1c2c(O)cccc2Cc2cccc(O)c21 [dithranol, 1,8-Dihydroxy-9(10H)-anthracenone]
5 |  |  | 0.12 | 1.25 | Phosphatidylcholine [PC]
